According to patent US20170202787A1, “TREATMENT OF CHRONIC OBSTRUCTIVE PULMONARY DISEASE WITH NEBULIZED BETA 2-AGONIST OR COMBINED NEBULIZED BETA 2-AGONIST AND ANTICHOLINERGIC ADMINISTRATION” (Sunovion Respiratory Development, Inc., priority 2009, published 2017):
Counter-ions that a name gives are not always drawn. Like-named read-outs stand apart in the source and are kept apart here.

How the values were obtained:
[1] = approved twice-daily dosing in COPD; cited from earlier work
[2] = high efficiency nebulizer
[3] = not given; remark: listed apart in the source
[4] = nebulized, clinical trial in COPD; cited from earlier work
[5] = Example 6: randomized, cross-over, single dose study of nebulized salmeterol in healthy volunteers
[6] = not given; remark: listed apart in the source
[7] = not given; remark: listed apart in the source
[8] = conventional nebulizer, same or higher dose
[9] = lower dose, high efficiency nebulizer

OCc1cc(C(O)CNCCCCCCOCCCCc2ccccc2)ccc1O (centres unmarked) [salmeterol xinafoate]
duration of clinically meaningful bronchodilation with acceptable side effects [1]: 12 h

COc1ccc(C[C@@H](C)NC[C@H](O)c2ccc(O)c(NC=O)c2)cc1.COc1ccc(C[C@@H](C)NC[C@H](O)c2ccc(O)c(NC=O)c2)cc1.O=C(O)/C=C/C(=O)O [formoterol fumarate]
duration of clinically meaningful bronchodilation with acceptable side effects [1]: 12 h

COc1ccc(C[C@@H](C)NC[C@H](O)c2ccc(O)c(NC=O)c2)cc1 [arformoterol, R,R-formoterol]
duration of clinically meaningful bronchodilation [8]: less than 24 hours | duration of clinically meaningful bronchodilation (high efficiency nebulizer): at least 24 hours | adverse event profile compared to a comparable or lower dose with a conventional nebulizer [2]: improved adverse event profile | lung deposition compared to a comparable or higher dose with a conventional nebulizer [2]: higher degree of lung deposition | duration of clinically meaningful bronchodilation [3, 8]: less than 24 hours | duration of clinically meaningful bronchodilation ([3]; high efficiency nebulizer): at least 24 hours

COc1ccc(C[C@@H](C)NC[C@H](O)c2ccc(O)c(NC=O)c2)cc1 [arformoterol tartrate]
duration of clinically meaningful bronchodilation with acceptable side effects [1]: 12 h | duration of clinically meaningful bronchodilation [4]: 24 h | side effects at the dosing giving 24 hours of bronchodilation [4]: unacceptable side effects

OCc1cc(C(O)CNCCCCCCOCCCCc2ccccc2)ccc1O (centres unmarked) [salmeterol]
duration of clinically meaningful bronchodilation ([5]; high efficiency nebulizer): at least 24 hours | period of time of therapeutic effect ([5]; high efficiency nebulizer, tested doses): 12 to 24 h | adverse event profile / side effects (serum potassium, glucose) compared to a selected dose with a conventional nebulizer [5, 9]: improved adverse event profile and/or improved side effects | therapeutic effects compared to a selected dose with a conventional nebulizer [5, 9]: improved or similar therapeutic effects | duration of clinically meaningful bronchodilation ([5]; same dose with conventional nebulizer, metered dose inhaler, or dry powder inhaler): less than 24 hours

COc1ccc(CC(C)NCC(O)c2ccc(O)c(NC=O)c2)cc1 (racemic) [formoterol]
duration of clinically meaningful bronchodilation [6, 8]: less than 24 hours | duration of clinically meaningful bronchodilation ([6]; high efficiency nebulizer): at least 24 hours | duration of clinically meaningful bronchodilation [7, 8]: less than 24 hours | duration of clinically meaningful bronchodilation ([7]; high efficiency nebulizer): at least 24 hours
